# Measured values reported in patent publication US7399743B2, “Targeted thrombosis” (The Scripps Research Institute, priority 2001, dated 2008).
# “Also recorded” adds a separate entry of the source.
# T1: Factor VIIa (Homo sapiens, UniProt P08709)
# T1 sequence (P08709 61-212 limits assumed): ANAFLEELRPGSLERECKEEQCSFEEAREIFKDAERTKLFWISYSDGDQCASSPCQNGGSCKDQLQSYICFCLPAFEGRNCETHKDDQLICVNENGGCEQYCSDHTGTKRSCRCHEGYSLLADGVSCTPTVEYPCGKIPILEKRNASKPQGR
# T1 sequence (P08709 213-466 limits assumed): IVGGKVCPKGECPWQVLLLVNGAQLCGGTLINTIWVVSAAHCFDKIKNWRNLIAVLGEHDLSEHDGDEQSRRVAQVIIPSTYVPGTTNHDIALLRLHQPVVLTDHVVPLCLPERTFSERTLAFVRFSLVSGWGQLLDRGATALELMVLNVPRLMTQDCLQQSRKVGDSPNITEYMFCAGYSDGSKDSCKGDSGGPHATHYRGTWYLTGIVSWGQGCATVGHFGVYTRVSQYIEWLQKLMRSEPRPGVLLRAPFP
# B1: truncated Tissue Factor: recombinant Tissue Factor containing only the extracellular domain, 219 amino acids, soluble (protein, listed as Homo sapiens)
# chain: SGTTNTVAAYNLTWKSTNFKTILEWEPKPVNQVYTVQISTKSGDWKSKCFYTTDTECDLTDEIVKDVKQTYLARVFSYPAGNVESTGSAGEPLYENSPEFTPYLETNLGQPTIQSFEQVGTKVNVTVEDERTLVRRNNTFLSLRDVFGKDLIYTLYYWKSSSSGKKTAKTNTNEFLIDVDKGENYCFSVQAVIPSRTVNRKSTDSPVECMGQEKGEFRE
# B2: TF1-218: soluble extracellular domain of human Tissue Factor, SEQ ID NO:4 (protein, listed as Homo sapiens)
# chain: SGTTNTVAAYNLTWKSTNFKTILEWEPKPVNQVYTVQISTKSGDWKSKCFYTTDTECDLTDEIVKDVKQTYLARVFSYPAGNVESTGSAGEPLYENSPEFTPYLETNLGQPTIQSFEQVGTKVNVTVEDERTLVRRNNTFLSLRDVFGKDLIYTLYYWKSSSSGKKTAKTNTNEFLIDVDKGENYCFSVQAVIPSRTVNRKSTDSPVECMGQEKGEFR
# Legend:
# [1] = tested on: LnCap cells; assay: cell proliferation and viability assay (trypan blue); conditions: without / with D-β-E 0.1 uM
# Description: A cell proliferation and viability assay was employed to assess DβE inhibitor activity using trypan blue staining. LnCap cells (4×10^4 cells/well) were seeded in 96 well plates. Different concentrations of the DβE inhibitor or the Asp-Glu (D-E) substrate were added to the media as indicated. The % cell viability was determined 48 hours after treatment as the number of living cells (unstained) divided by total cells count (stain+unstained cells).
# A cell proliferation and viability assay was employed to assess DβE inhibitor activity using trypan blue staining. LnCap cells (4×10^4 cells/well) were seeded in 96 well plates. Different concentrations of the DβE inhibitor or the Asp-Glu (D-E) substrate were added to the media at the concentrations indicated in FIG. 13A. The % cell viability was determined 48 hours after treatment as the number of living cells (unstained) divided by total cells count (stain+unstained cells).
# The cytotoxic effect of methotrexate was assessed with and without the presence of the PSMA inhibitor (D-β-E) or PSMA substrate (D-E) using a cell proliferation and viability assay.
# [2] = target: NAALADase; conditions: read-out: Ki, inhibition of NAALADase activity; cited from earlier work
# [3] = tested on: Factor X; assay: proteolytic activity of TF construct:Factor VIIa complexes toward Factor X; type: biochemical; conditions: soluble complexes, increasing concentration
# Description: The proteolytic activities of both Fn-TF:Factor VIIa and TF 1-218:Factor VIIa complexes toward Factor X were determined by a functional assay (Schullek, Ruf et al. 1994) using Spectrozyme Factor Xa to assess Factor Xa generation. Briefly, varying concentrations of Fn-TF and TF1-218 were pre-incubated with Factor VIIa (75 nM) for 5 minutes at 37° C. in the presence of 5 mM CaCl2. The reaction was initiated by addition of substrate Factor X (1.5 uM). After incubation for 10 minutes at 37° C., the reaction was terminated by adding EDTA to a concentration of 0.1M. The amount of Factor Xa generated was determined by measuring Factor Xa amidolytic activity using […] of the chromogenic substrate Spectrozyme Fxa (American Diagnostica, Greenwich, Conn.). The rate of absorbance increase at 405 nM was measured in a kinetic micro-titer plate reader.
# The effect of the fused docking structure on the proteolytic activity of TF:VIIa was studied by a linked functional assay (Schullek, Ruf et al. 1994). Varying concentrations of Fn-TF or TF1-218 were allowed to bind to 10 pM Factor VIIa for 5 minutes. […] The reaction was stopped by addition of 50 mM EDTA and the amount of Factor Xa generated was determined by measuring the Factor Xa amidolytic activity in the assay mixture using spetrozyme FXa as described above.
# [4] = tested on: integrin-expressing CHO K1 cells; assay: cell-mediated coagulation assay with CHO K1 cells and human plasma; type: cell-based
# Description: Coagulation assays were performed using an established procedure with some modifications to include a step for binding Tissue Factor constructs to cells. Platelet depleted, citrated human plasma pooled from multiple donors was used for these experiments. Cells are dislodged with trypsin free cell dissociation buffer (Gibco), and washed twice with TBS. Cells were then counted with cytometer. Only cells with viability greater than 90% were used for the assay. Varying concentrations of thrombogen were incubated with 10^5 cells in 100 ul TBS containing Ca^++ 10 mM and Mg^++ 5 mM for 15 minutes at 37° C. The assays were initiated by addition of 100 ul of pooled citrated plasma pre-warmed to 37° C. Clotting times were recorded as the interval between assay initiation and clot appearance.
# Activation of the coagulation cascade was measured using a coagulation assay. Varying concentrations of Fn-TF or Tissue Factor were incubated with CHO K1 cells for 15 minutes. Coagulation assays were initiated with addition of 100 ul of pooled normal human plasma. The coagulation time was recorded as the interim between the initiation of assay and the appearance of the first fibrin strands.
# [5] = target: T1, Factor VIIa; assay: amidolytic assay of Factor VIIa bound to Fn-TF or TF 1-218; type: biochemical; conditions: Factor VIIa 5nM, chromozym t-PA
# Description: The catalytic activity of Factor VIIa bound to Fn-TF for a peptidyl substrate was analyzed by hydrolysis of chromozym t-Pa (Boehringer Mannheim) and compared with that of the soluble TF 1-218. Varying concentrations TF 1-218 or Fn-TF were incubated with Factor VIIa at a final concentration of 5nM in the presence of 5 mM Ca^++ at ambient temperature for 15 minutes. Chromozym t-PA was added to a concentration of 1 mM. The initial rate of hydrolysis was measured at 406 nm with a kinetic micro-titer plate reader for 1 minute.
# [6] = tested on: integrin on CHO cells; assay: binding of Fn-TF to integrin-expressing CHO K1 cells (Western blot); conditions: for association with CHO cells: varying concentrations, 10^5 CHO K1 cells
# Description: The binding of the Fn-TF protein to the integrin on CHO cells was monitored through direct incubation of varying concentrations of recombinant Fn-TF with 10^5 CHO K1 cells in TBS, 10 mM CaCl2, 5 mM MgSO4. The bound and unbound proteins were separated by centrifugation, and the bound Tissue Factor immunoreactivity was detected by Western blot. The amount of Tissue Factor bound was quantified by comparing the intensity of resulting bands on the membrane to that of a standard curve of Tissue Factor protein of known concentration using a densitometer.
# [7] = median lethal dose in mice; type: in vivo; conditions: 20 gm Balb/C mice
# [8] = tested on: factor X; conditions: native Tissue Factor in phospholipid membrane environment; cited from earlier work
molecule,measurement,setting,value
"CN(Cc1cnc2nc(N)nc(N)c2n1)c1ccc(C(=O)N[C@@H](CCC(=O)O)C(=O)O)cc1 [MTX, methotrexate]",ID50/ID50* (enhancement of tumoricidal activity),[1],20
"N[C@@H](Cn1oc(=O)[nH]c1=O)C(=O)O [Quisqalic acid, quisqalic acid]",Ki,[2],1900 nM
Fn-TF: fusion of fibronectin type III repeat domains 8-11 (SEQ ID NO:9) or domain 10 (SEQ ID NO:10) with Tissue Factor residues 3-218,proteolytic activity of the Factor VIIa complex toward Factor X,[3],increased proteolytic activity similar to the curve obtained with TF1-218
same,coagulation activity compared with CHO K1 cells expressing approximately 5×10^5 native Tissue Factor molecules,"[4]; 75 nM Fn-TF, 10^5 CHO K1 cells",approximately the same level of coagulation activity
same,coagulation activity,"[4]; approximately 100,000 Fn-TF:integrin complexes per cell, CHO K1 cells","40,000 milliunits"
same,coagulation time,"[4]; approximately 100,000 Fn-TF:integrin complexes per cell, CHO K1 cells, human plasma",about 20 seconds
same,"cofactor enhancement of Factor VIIa amidolytic activity, compared with Tissue Factor",[5],Very little difference in amidolytic activity
same,Fn-TF molecules bound per cell,[6]; 75 nM Fn-TF incubated with 10^5 CHO K1 cells in 100 ul,approximately 5×10^5
same,association with CHO cells,[6],increasing amounts of Fn-TF become associated with CHO cells
same,LD50 (median lethal dose),[7],about 8 ug
RGDS: RGDS (SEQ ID NO: 17) peptide that binds integrin (A RGDS peptide.) [reference compound],inhibition of Fn-TF coagulation activity by RGDS peptide,"[4]; Fn-TF (20 nM)+RGDS (500 μM), CHO K1 cells",fully blocked; also recorded: almost completely inhibited
B1,times less factor X-activating activity than native Tissue Factor,[8],approximately 10^5
B2,association with CHO cells,[6],no demonstrable association
same,LD50 (median lethal dose),[7],greater than 500 ug
